{
  "source": "paper PMC5733478",
  "about": "“A Non-imaging High Throughput Approach to Chemical Library Screening at the Unmodified Adenosine-A3 Receptor in Living Cells” (Frontiers in Pharmacology, 2017)",
  "target": "T1, human A3AR (Homo sapiens, UniProt P0DMS8)",
  "T1 construct": "expressed in transfected cells",
  "T1 sequence (P0DMS8 1-318)": "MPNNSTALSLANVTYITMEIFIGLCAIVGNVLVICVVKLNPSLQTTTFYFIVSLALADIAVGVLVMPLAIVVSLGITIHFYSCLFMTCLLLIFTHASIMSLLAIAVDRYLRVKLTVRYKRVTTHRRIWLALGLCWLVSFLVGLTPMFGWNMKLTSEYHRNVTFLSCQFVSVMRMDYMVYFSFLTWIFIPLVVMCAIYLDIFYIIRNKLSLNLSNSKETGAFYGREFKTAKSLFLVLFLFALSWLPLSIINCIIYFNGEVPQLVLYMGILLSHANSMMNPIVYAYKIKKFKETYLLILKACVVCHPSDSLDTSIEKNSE",
  "assay": "LOPAC library primary screen: single concentration (10 μM) inhibition of 25 nM CA200645 binding, PHERAstar FS",
  "key": {"[1]": {"conditions": "compounds tested at 10 µM, % of control wells (1% DMSO and 25 nM CA200645), whole live cells expressing the A3AR, mean ± SD, three experiments in duplicate"}},
  "note": "Counter-ions that a name gives are not always drawn. Like-named read-outs stand apart in the source and are kept apart here.",
  "data": [
    {"molecule": "CNC[C@H](O)c1cccc(O)c1", "note": "[Phenylephrine hydrochloride]", "values": [
      {"measurement": "% 25 nM CA200645 binding", "value": "102.2 ± 12.7", "unit": "%"}
    ]},
    {"molecule": "NS(=O)(=O)c1cc2c(cc1Cl)N=CNS2(=O)=O", "note": "[Chlorothiazide]", "values": [
      {"measurement": "% 25 nM CA200645 binding", "value": "107.7 ± 8.4", "unit": "%"}
    ]},
    {"molecule": "NC(N)=NCCCCN=C(N)N", "note": "[Arcaine sulfate]", "values": [
      {"measurement": "% 25 nM CA200645 binding", "setting": "[1]", "value": "96.1 ± 6.4", "unit": "%"}
    ]},
    {"molecule": "O=[N+]([O-])/C=C/c1ccc2c(c1)OCO2", "note": "[MNS]", "values": [
      {"measurement": "% 25 nM CA200645 binding", "value": "50.1 ± 14.8", "unit": "%"}
    ]},
    {"molecule": "NC(CCP(=O)(O)O)C(=O)O", "note": "(racemic) [(±)-2-Amino-4-phosphonobutyric acid]", "values": [
      {"measurement": "% 25 nM CA200645 binding", "value": "99.9 ± 8.9", "unit": "%"}
    ]},
    {"molecule": "CCCCCCCCCC(=O)NC(CN1CCOCC1)[C@H](O)c1ccccc1.Cl", "note": "(mixture of isomers)", "values": [
      {"measurement": "% 25 nM CA200645 binding", "value": "98.6 ± 11.0", "unit": "%"}
    ]},
    {"molecule": "COc1cc(C(O)CN)ccc1O.Cl", "note": "(racemic) [(±)-Normetanephrine hydrochloride]", "values": [
      {"measurement": "% 25 nM CA200645 binding", "setting": "compounds tested at 10 µM, % of control wells (1% DMSO and 25 nM CA200645), […], mean ± SD, three experiments in duplicate", "value": "95.5 ± 24.8", "unit": "%"}
    ]},
    {"molecule": "Cl.O=c1[nH]oc2c1CCNC2", "note": "[THIP hydrochloride]", "values": [
      {"measurement": "% 25 nM CA200645 binding", "value": "100.3 ± 3.4", "unit": "%"}
    ]},
    {"molecule": "CCN(CC)CCNC(=O)c1ccc(N)cc1", "note": "[Procainamide hydrochloride]", "values": [
      {"measurement": "% 25 nM CA200645 binding", "value": "89.6 ± 33.7", "unit": "%"}
    ]},
    {"molecule": "Cl.NCCS", "note": "[Cysteamine hydrochloride]", "values": [
      {"measurement": "% 25 nM CA200645 binding", "value": "89.3 ± 6.0", "unit": "%"}
    ]},
    {"molecule": "S-Nitroso-N-acetylpenicillamine", "values": [
      {"measurement": "% 25 nM CA200645 binding", "value": "127.5 ± 10.1", "unit": "%"}
    ]},
    {"molecule": "[H]/N=C(/NC)NCCC[C@H](N)C(=O)O", "note": "[NG-Monomethyl-L-arginine acetate]", "values": [
      {"measurement": "% 25 nM CA200645 binding", "setting": "[1]", "value": "112.2 ± 7.1", "unit": "%"}
    ]},
    {"molecule": "C#CC(N)CCC(=O)O", "note": "(centres unmarked) [gamma-Acetylinic GABA]", "values": [
      {"measurement": "% 25 nM CA200645 binding", "value": "97.6 ± 3.0", "unit": "%"}
    ]},
    {"molecule": "CSc1ccc2c(c1)C(N1CCN(C)CC1)Cc1ccccc1S2", "note": "(centres unmarked) [Methiothepin mesylate]", "values": [
      {"measurement": "% 25 nM CA200645 binding", "setting": "[1]", "value": "112.2 ± 9.4", "unit": "%"}
    ]},
    {"molecule": "CN1C(=O)CC[C@H]1c1cccnc1", "note": "[(-)-Cotinine]", "values": [
      {"measurement": "% 25 nM CA200645 binding", "value": "106.5 ± 4.3", "unit": "%"}
    ]},
    {"molecule": "CN(C)c1ccc(O)c2c1C[C@H]1C[C@H]3[C@H](N(C)C)C(O)=C(C(N)=O)C(=O)[C@@]3(O)C(O)=C1C2=O", "note": "[Minocycline hydrochloride]", "values": [
      {"measurement": "% 25 nM CA200645 binding", "value": "101.7 ± 17.9", "unit": "%"}
    ]},
    {"molecule": "Cc1cc2c(cc1Cl)N(C(=O)Nc1cccc3ncccc13)CC2", "note": "[SB-215505]", "values": [
      {"measurement": "% 25 nM CA200645 binding", "value": "98.1 ± 14.8", "unit": "%"}
    ]},
    {"molecule": "CC(C)[N+]1(C)[C@@H]2CC[C@H]1C[C@@H](OC(=O)C(CO)c1ccccc1)C2", "note": "(some centres unmarked) [Ipratropium bromide]", "values": [
      {"measurement": "% 25 nM CA200645 binding", "value": "106.7 ± 26.2", "unit": "%"}
    ]},
    {"molecule": "COc1cc(SC)ccc1C(=O)N1CCC(Cc2ccccc2)CC1", "note": "[JX401]", "values": [
      {"measurement": "% 25 nM CA200645 binding", "value": "84.6 ± 8.9", "unit": "%"}
    ]},
    {"molecule": "CSc1ccc(C(=O)c2[nH]c(=O)[nH]c2C)cc1", "note": "[Enoximone]", "values": [
      {"measurement": "% 25 nM CA200645 binding", "value": "102.3 ± 5.2", "unit": "%"}
    ]},
    {"molecule": "CC(C)OC(=O)C(C)(C)Oc1ccc(C(=O)c2ccc(Cl)cc2)cc1", "note": "[Fenofibrate]", "values": [
      {"measurement": "% 25 nM CA200645 binding", "value": "87.6 ± 17.1", "unit": "%"}
    ]},
    {"molecule": "CCCOc1ccccc1-c1nc2nn[nH]c2c(=O)[nH]1", "note": "[Zaprinast]", "values": [
      {"measurement": "% 25 nM CA200645 binding", "setting": "[1]", "value": "109.4 ± 6.4", "unit": "%"}
    ]},
    {"molecule": "COc1ccc2c(c1)CC[C@@H]1[C@@H]2CC[C@]2(C)[C@@H](NCCCCCCN3C(=O)C=CC3=O)CC[C@@H]12", "note": "[U-73122]", "values": [
      {"measurement": "% 25 nM CA200645 binding", "value": "73.1 ± 7.4", "unit": "%"}
    ]},
    {"molecule": "C[C@]12CC[C@@H]3c4ccc(O)cc4CC[C@H]3[C@@H]1CCC2=O", "note": "[Estrone]", "values": [
      {"measurement": "% 25 nM CA200645 binding", "value": "91.0 ± 8.5", "unit": "%"}
    ]},
    {"molecule": "O=C(O)Cc1c[nH]c2ccc(O)cc12", "note": "[5-Hydroxyindolacetic acid]", "values": [
      {"measurement": "% 25 nM CA200645 binding", "value": "102.3 ± 8.2", "unit": "%"}
    ]},
    {"molecule": "C[C@@]12C(=O)OC(=O)[C@]1(C)[C@H]1CC[C@@H]2O1", "note": "[Cantharidin]", "values": [
      {"measurement": "% 25 nM CA200645 binding", "value": "89.3 ± 25.6", "unit": "%"}
    ]},
    {"molecule": "CN1C2CCC1CC(OC(=O)c1c[nH]c3ccccc13)C2.Cl", "note": "(centres unmarked)", "values": [
      {"measurement": "% 25 nM CA200645 binding", "value": "109.6 ± 9.2", "unit": "%"}
    ]},
    {"molecule": "O=c1n(CCCN2CCN(c3cccc(Cl)c3)CC2)nc2ccccn12", "note": "[Trazodone hydrochloride]", "values": [
      {"measurement": "% 25 nM CA200645 binding", "value": "104.7 ± 11.3", "unit": "%"}
    ]},
    {"molecule": "Oc1ccc2ccccc2c1SSc1c(O)ccc2ccccc12", "note": "[IPA-3]", "values": [
      {"measurement": "% 25 nM CA200645 binding", "value": "63.1 ± 15.2", "unit": "%"}
    ]},
    {"molecule": "NNc1nncc2ccccc12", "note": "[Hydralazine hydrochloride]", "values": [
      {"measurement": "% 25 nM CA200645 binding", "value": "100.6 ± 8.6", "unit": "%"}
    ]},
    {"molecule": "Cl.Cl.O=c1ccc2[nH]cc(C3=CCNCC3)c2[nH]1", "note": "[CP-93129 dihydrochloride hydrate]", "values": [
      {"measurement": "% 25 nM CA200645 binding", "value": "102.1 ± 6.9", "unit": "%"}
    ]},
    {"molecule": "C[N+]1(C)[C@@H]2CC[C@H]1C[C@@H](OC(=O)C(CO)c1ccccc1)C2", "note": "(some centres unmarked) [Atropine methyl nitrate]", "values": [
      {"measurement": "% 25 nM CA200645 binding", "setting": "[1]", "value": "90.8 ± 8.8", "unit": "%"}
    ]}
  ]
}
